Measurements taken from article PMC4573335 (Biochemistry, 2015).

Biological target: T1, hALAS2 (human erythroid-specific 5-aminolevulinate synthase) (Homo sapiens, UniProt P22557)
T1 sequence (P22557 80-587): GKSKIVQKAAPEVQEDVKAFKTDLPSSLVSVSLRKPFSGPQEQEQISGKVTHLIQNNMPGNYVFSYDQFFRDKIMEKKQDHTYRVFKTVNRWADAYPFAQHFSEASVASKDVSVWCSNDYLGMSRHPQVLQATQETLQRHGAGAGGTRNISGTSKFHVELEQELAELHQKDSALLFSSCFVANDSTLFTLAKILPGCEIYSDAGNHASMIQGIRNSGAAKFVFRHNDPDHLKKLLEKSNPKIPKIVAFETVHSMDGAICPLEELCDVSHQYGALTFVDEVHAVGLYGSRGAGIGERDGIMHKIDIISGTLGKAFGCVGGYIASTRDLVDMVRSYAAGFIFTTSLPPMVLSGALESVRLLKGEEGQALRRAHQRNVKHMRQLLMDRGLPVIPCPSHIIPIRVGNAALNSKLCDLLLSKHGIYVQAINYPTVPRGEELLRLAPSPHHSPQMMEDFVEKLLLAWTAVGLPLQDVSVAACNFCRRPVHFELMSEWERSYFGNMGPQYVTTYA
Experiment: absorption spectroscopy, A420/A330 ratio
Format: binding
Settings: PLP holoenzyme

Q: For NCC(=O)O [glycine], which “absorption spectroscopy, A420/A330 ratio (PLP-glycine aldimine)” value is on record?
A: In all cases, the A420/A330 ratio was increased upon reaction with glycine
